Assay results as given in PubChem BioAssay (NCI).
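Tested at 5 concentrations; 48 h exposure; 96-well plates; endpoints linearly interpolated, else capped at highest concentration. Definition used: TGI = concentration required for complete inhibition of growth.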

How the values were obtained:
Assay in all cases: NCI anticancer screen, dose series, 48 h
[1] = tested on: CCRF-CEM leukemia
[2] = tested on: 786-0 renal
[3] = tested on: UO-31 renal
[4] = tested on: SK-OV-3 ovarian
[5] = tested on: MOLT-4 leukemia
[6] = tested on: SF-295 CNS
[7] = tested on: SK-MEL-5 melanoma
[8] = tested on: DU-145 prostate
[9] = tested on: MDA-MB-435
[10] = tested on: UACC-257 melanoma
[11] = tested on: RPMI-8226 leukemia
[12] = tested on: SW-620 colon
[13] = tested on: COLO 205 colon
[14] = tested on: NCI/ADR-RES ovarian
[15] = tested on: HOP-62 NSCLC
[16] = tested on: OVCAR-4 ovarian
[17] = tested on: OVCAR-8 ovarian
[18] = tested on: HCT-15 colon
[19] = tested on: NCI-H226 lung
[20] = tested on: SN12C renal
[21] = tested on: SNB-75 CNS
[22] = tested on: K-562 leukemia
[23] = tested on: HCT-116 colon
[24] = tested on: EKVX NSCLC
[25] = tested on: M14 melanoma
[26] = tested on: IGROV1 ovarian
[27] = tested on: U251 CNS
[28] = tested on: UACC-62 melanoma
[29] = tested on: LOX IMVI melanoma
[30] = tested on: PC-3 prostate
[31] = tested on: OVCAR-5 ovarian
[32] = tested on: SF-268 CNS
[33] = tested on: TK-10 renal
[34] = tested on: NCI-H522 lung
[35] = tested on: SK-MEL-2 melanoma
[36] = tested on: HT29 colon
[37] = tested on: RXF 393 renal
[38] = tested on: MDA-N
[39] = tested on: MDA-MB-231 breast
[40] = tested on: OVCAR-3 ovarian
[41] = tested on: HS 578T breast
[42] = tested on: NCI-H23 lung
[43] = tested on: ACHN renal
[44] = tested on: SNB-19 CNS
[45] = tested on: HCC-2998 colon
[46] = tested on: T-47D breast
[47] = tested on: BT-549 breast
[48] = tested on: KM12 colon
[49] = tested on: A549 NSCLC
[50] = tested on: HL-60(TB) leukemia
[51] = tested on: HOP-92 NSCLC
[52] = tested on: CAKI-1 renal
[53] = tested on: SK-MEL-28 melanoma
[54] = tested on: SF-539 CNS
[55] = tested on: MALME-3M melanoma
[56] = tested on: MCF7 breast

SMILES: CCOC(=O)C(NC(=O)c1ccccc1)(Nc1cc(C)on1)C(F)(F)F (stereo unspecified)
- TGI [1]: > 100 µM
- TGI [2]: > 100 µM
- TGI [3]: > 100 µM
- TGI [4]: > 100 µM
- TGI [5]: > 100 µM
- TGI [6]: > 100 µM
- TGI [7]: > 100 µM
- TGI [8]: > 100 µM
- TGI [9]: > 100 µM
- TGI [10]: > 100 µM
- TGI [11]: > 100 µM
- TGI [12]: > 100 µM
- TGI [13]: > 100 µM
- TGI [14]: > 100 µM
- TGI [15]: > 100 µM
- TGI [16]: > 100 µM
- TGI [17]: > 100 µM
- TGI [18]: > 100 µM
- TGI [19]: > 100 µM
- TGI [20]: > 100 µM
- TGI [21]: > 100 µM
- TGI [22]: > 100 µM
- TGI [23]: > 100 µM
- TGI [24]: > 100 µM
- TGI [25]: > 100 µM
- TGI [26]: > 100 µM
- TGI [27]: > 100 µM
- TGI [28]: > 100 µM
- TGI [29]: > 100 µM
- TGI [30]: > 100 µM
- TGI [31]: > 100 µM
- TGI [32]: > 100 µM
- TGI [33]: > 100 µM
- TGI [34]: > 100 µM
- TGI [35]: > 100 µM
- TGI [36]: > 100 µM
- TGI [37]: > 100 µM
- TGI [38]: > 100 µM
- TGI [39]: 56.2 µM
- TGI [40]: > 100 µM
- TGI [41]: > 100 µM
- TGI [42]: > 100 µM
- TGI [43]: > 100 µM
- TGI [44]: > 100 µM
- TGI [45]: > 100 µM
- TGI [46]: > 100 µM
- TGI [47]: > 100 µM
- TGI [48]: > 100 µM
- TGI [49]: > 100 µM
- TGI [50]: > 100 µM
- TGI [51]: > 100 µM
- TGI [52]: > 100 µM
- TGI [53]: > 100 µM
- TGI [54]: > 100 µM
- TGI [55]: > 100 µM
- TGI [56]: > 100 µM
